Source: PubChem BioAssay AID328 (DTP/NCI, 2004)
“And” between values parts separate entries of the source, which are not always exact repeats. Equal values may be shown once. Inconclusive results and toxic doses are left out. Rule for the calls: active = survival T/C of 150% or more; inactive = T/C below 125% in these data.

System: BDF1 mice, P388 leukemia ip, median survival T/C
Assay: NCI In Vivo Anticancer Drug Screen. Data for tumor model P388 Leukemia (intraperitoneal) in B6D2F1 (BDF1) mice
Settings: endpoint: median survival time, higher = longer survival
Outline: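 Each value expresses how treatment altered survival: treated-mouse outcome over vehicle-mouse outcome, both groups bearing the transplanted tumour.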

[1] = dose: 12.5 mg/kg/injection, schedule: Q04DX003 (ip), vehicle: saline
[2] = dose: 25.0 mg/kg/injection, schedule: Q04DX003 (ip), vehicle: saline
[3] = dose: 50.0 mg/kg/injection, schedule: Q04DX003 (ip), vehicle: saline
[4] = dose: 50.0 mg/kg/injection, schedule: Q01DX005 (ip), vehicle: saline with Tween-80
[5] = dose: 100.0 mg/kg/injection, schedule: Q01DX005 (ip), vehicle: saline with Tween-80
[6] = dose: 200.0 mg/kg/injection, schedule: Q01DX005 (ip), vehicle: saline with Tween-80
[7] = dose: 100.0 mg/kg/injection, schedule: Q04DX003 (ip), vehicle: saline with Tween-80
[8] = dose: 200.0 mg/kg/injection, schedule: Q04DX003 (ip), vehicle: saline with Tween-80
[9] = dose: 25.0 mg/kg/injection, schedule: Q01DX009 (ip), vehicle: saline with Tween-80
[10] = dose: 50.0 mg/kg/injection, schedule: Q01DX009 (ip), vehicle: saline with Tween-80
[11] = dose: 100.0 mg/kg/injection, schedule: Q01DX001 (ip), vehicle: saline with Tween-80
[12] = dose: 200.0 mg/kg/injection, schedule: Q01DX001 (ip), vehicle: saline with Tween-80
[13] = dose: 12.5 mg/kg/injection, schedule: Q01DX001 (ip), vehicle: saline with Tween-80
[14] = dose: 25.0 mg/kg/injection, schedule: Q01DX001 (ip), vehicle: saline with Tween-80
[15] = dose: 100.0 mg/kg/injection, schedule: Q01DX009 (ip), vehicle: saline with Tween-80
[16] = dose: 200.0 mg/kg/injection, schedule: Q01DX009 (ip), vehicle: saline with Tween-80
[17] = dose: 6.25 mg/kg/injection, schedule: Q01DX009 (ip), vehicle: saline with Tween-80
[18] = dose: 12.5 mg/kg/injection, schedule: Q01DX009 (ip), vehicle: saline with Tween-80
[19] = dose: 100.0 mg/kg/injection, schedule: Q04DX003 (ip), vehicle: saline

Measured: T/C

C[C@@H]1C[C@H]2[C@@H]3CCC4=CC(=O)C=C[C@]4(C)[C@@]3(F)[C@@H](O)C[C@]2(C)[C@@]1(O)C(=O)CO
inactive: dose: 6.25 mg/kg/injection, schedule: Q04DX003 (ip), vehicle: saline 104 % of control | [1] 109 % of control | dose: 16.5 mg/kg/injection, schedule: Q04DX003 (ip), vehicle: saline 112 % of control and 122 % of control | dose: 25.0 mg/kg/injection, schedule: Q04DX003 (ip), vehicle: saline sonified 110 % of control | [2] 100 % of control and 113 % of control | dose: 37.5 mg/kg/injection, schedule: Q04DX003 (ip), vehicle: saline 109 % of control and 112 % of control | dose: 50.0 mg/kg/injection, schedule: Q04DX003 (ip), vehicle: saline sonified 110 % of control | [3] 90 % of control | dose: 55.0 mg/kg/injection, schedule: Q04DX003 (ip), vehicle: saline 110 % of control | dose: 85.0 mg/kg/injection, schedule: Q04DX003 (ip), vehicle: saline 119 % of control | dose: 100.0 mg/kg/injection, schedule: Q04DX003 (ip), vehicle: saline sonified 100 % of control

COC(=O)CCCCI
inactive: [4] 105 % of control | [5] 110 % of control | [6] 107 % of control

O=Cc1cc([N+](=O)[O-])ccc1Cl
inactive: dose: 50.0 mg/kg/injection, schedule: Q04DX003 (ip), vehicle: saline with Tween-80 100 % of control | [7] 96 % of control | [8] 100 % of control

COc1ccc(S(=O)(=O)Nc2c([N+](=O)[O-])cc([N+](=O)[O-])c3ccccc23)cc1
inactive: [9] 102 % of control | [10] 100 % of control

CCN(C(=O)Nc1ccccc1Cl)c1ccccc1
inactive: [11] 95 % of control | [12] 100 % of control | dose: 400.0 mg/kg/injection, schedule: Q01DX001 (ip), vehicle: saline with Tween-80 100 % of control

[Se]c1nccn2cnnc12
inactive: dose: 6.25 mg/kg/injection, schedule: Q01DX001 (ip), vehicle: saline with Tween-80 122 % of control | [13] 105 % of control | [14] 103 % of control

Nc1ccccc1C(=O)N/N=C\c1ccc(O)cc1
inactive: [15] 110 % of control | [16] 94 % of control

C[N-]c1nnnn1C.[Au+].c1ccc([PH+](c2ccccc2)c2ccccc2)cc1
inactive: [17] 108 % of control | [18] 108 % of control | [9] 108 % of control

c1ccc(CN2CCCCC2)nc1
inactive: dose: 5.0 mg/kg/injection, schedule: Q01DX009 (ip), vehicle: Klucel (hydroxypropylcellulose) (HPC) 105 % of control | dose: 5.0 mg/kg/injection, schedule: Q04DX003 (ip), vehicle: Klucel (hydroxypropylcellulose) (HPC) 104 % of control | dose: 10.0 mg/kg/injection, schedule: Q01DX009 (ip), vehicle: Klucel (hydroxypropylcellulose) (HPC) 100 % of control | dose: 10.0 mg/kg/injection, schedule: Q04DX003 (ip), vehicle: Klucel (hydroxypropylcellulose) (HPC) 100 % of control | dose: 20.0 mg/kg/injection, schedule: Q01DX009 (ip), vehicle: Klucel (hydroxypropylcellulose) (HPC) 105 % of control | dose: 20.0 mg/kg/injection, schedule: Q04DX003 (ip), vehicle: Klucel (hydroxypropylcellulose) (HPC) 100 % of control

CCNC(=O)N(CC(N)=O)c1ncc([N+](=O)[O-])s1
inactive: [13] 98 % of control | [14] 106 % of control | dose: 50.0 mg/kg/injection, schedule: Q01DX001 (ip), vehicle: saline with Tween-80 98 % of control | [4] 94 % of control | [11] 93 % of control | [5] 86 % of control | [12] 98 % of control | [6] 96 % of control

CCCCNC(C)(C)CO
inactive: dose: 3.12 mg/kg/injection, schedule: Q01DX009 (ip), vehicle: saline 100 % of control | dose: 6.25 mg/kg/injection, schedule: Q01DX009 (ip), vehicle: saline 99 % of control | dose: 12.5 mg/kg/injection, schedule: Q01DX009 (ip), vehicle: saline 99 % of control | [1] 102 % of control | dose: 25.0 mg/kg/injection, schedule: Q01DX009 (ip), vehicle: saline 99 % of control | [2] 100 % of control | dose: 50.0 mg/kg/injection, schedule: Q01DX009 (ip), vehicle: saline 86 % of control | [3] 102 % of control | dose: 100.0 mg/kg/injection, schedule: Q01DX009 (ip), vehicle: saline 103 % of control | [19] 95 % of control and 100 % of control

CN(C)c1ccc(N=C2C=CC(=O)C=C2)cc1
inactive: dose: 3.13 mg/kg/injection, schedule: Q01DX009 (ip), vehicle: saline with Tween-80 107 % of control | [17] 112 % of control and 117 % of control | [18] 110 % of control and 117 % of control | [9] 118 % of control

CC(=O)CC(=O)NCCNCCNC(=O)CC(C)=O
inactive: [19] 100 % of control | dose: 200.0 mg/kg/injection, schedule: Q04DX003 (ip), vehicle: saline 114 % of control | dose: 400.0 mg/kg/injection, schedule: Q04DX003 (ip), vehicle: saline 100 % of control

Cc1cccc(N=P(c2ccccc2)(c2ccccc2)c2ccccc2)c1
inactive: dose: 50.0 mg/kg/injection, schedule: Q01DX009 (ip), vehicle: Klucel (hydroxypropylcellulose) (HPC) 109 % of control | dose: 50.0 mg/kg/injection, schedule: Q04DX003 (ip), vehicle: Klucel (hydroxypropylcellulose) (HPC) 109 % of control | dose: 100.0 mg/kg/injection, schedule: Q01DX009 (ip), vehicle: Klucel (hydroxypropylcellulose) (HPC) 118 % of control | dose: 100.0 mg/kg/injection, schedule: Q04DX003 (ip), vehicle: Klucel (hydroxypropylcellulose) (HPC) 100 % of control | dose: 133.0 mg/kg/injection, schedule: Q01DX009 (ip), vehicle: Klucel (hydroxypropylcellulose) (HPC) 117 % of control | dose: 200.0 mg/kg/injection, schedule: Q01DX009 (ip), vehicle: Klucel (hydroxypropylcellulose) (HPC) 108 % of control | dose: 200.0 mg/kg/injection, schedule: Q04DX003 (ip), vehicle: Klucel (hydroxypropylcellulose) (HPC) 95 % of control

O=C/C=C/Nc1ccccc1
inactive: [15] 122 % of control | [16] 109 % of control | dose: 400.0 mg/kg/injection, schedule: Q01DX009 (ip), vehicle: saline with Tween-80 90 % of control

CCCCOCN(COCCCC)c1cccc(Cl)c1
inactive: [10] 100 % of control | [15] 106 % of control | [16] 117 % of control

CCOC(=O)/C(Cc1cnc2ccccc2n1)=N\O
inactive: [7] 95 % of control | [8] 100 % of control | dose: 400.0 mg/kg/injection, schedule: Q04DX003 (ip), vehicle: saline with Tween-80 100 % of control

CC(=O)CC(C)=O.CC(=O)CC(C)=O.Cc1c[nH]cn1.O=N[O-].[Co]
inactive: dose: 100.0 mg/kg/injection, schedule: Q04DX002 (ip), vehicle: saline with Tween-80 107 % of control | dose: 200.0 mg/kg/injection, schedule: Q04DX002 (ip), vehicle: saline with Tween-80 124 % of control

Nc1nc(N)c2cc(S(=O)(=O)c3ccc(Cl)c(Cl)c3)ccc2n1
inactive: [10] 100 % of control | [15] 91 % of control | [16] 102 % of control
